Like-named read-outs stand apart in the source and are kept apart here. Marks after values point to notes of the source that are not given here. Each block holds one molecule with its values, some of them ahead of it.
Legend:
CYP3A4 [1] = target: T1, CYP3A4 (Homo sapiens, UniProt P08684); settings: cited from earlier work
[2] = with vs without ritonavir; day 8; cited from earlier work
plasma protein (AAG) = settings: cited from earlier work; for fu, predominant plasma binding protein: AAG, ref [15],[16]
[3] = ref [46]; cited from earlier work
CYP3A7 [4] = target: T2, CYP3A7 (Homo sapiens, UniProt P24462); settings: ref [18], cited from earlier work
[5] = Adult sildenafil/DMS PBPK population simulations; design: species or system human
[6] = cited from earlier work; for DMS AUC Observed / Sildenafil AUC Observed: geometric mean
CYP3A5 [7] = target: T3, CYP3A5 (Homo sapiens, UniProt P20815); settings: cited from earlier work
CYP3A4 [8] = target: T1, CYP3A4; assay: Fluconazole inhibition of 6β-hydroxytestosterone formation, recombinant CYP3A4; format: biochemical
CYP3A5 [9] = target: T3, CYP3A5; assay: Fluconazole inhibition of 6β-hydroxytestosterone formation, recombinant CYP3A5; format: biochemical
CYP3A7 [10] = target: T2, CYP3A7; assay: Fluconazole inhibition of 6β-hydroxytestosterone formation, recombinant CYP3A7; format: biochemical
[11] = PopPK, cited from earlier work
[12] = cited from earlier work; for sildenafil clearance (CL): 36 term neonates, i.v. sildenafil; for Sildenafil CL Observed / Sildenafil Vss Observed: PopPK typical value scaled to 70 kg
CYP2C9 = settings: DMS formation, ref [12], cited from earlier work
[13] = children 1 to 17 years; low dose 10 mg in children > 20 kg; ref [24]; cited from earlier work
[14] = adults with pulmonary arterial hypertension; ref [44]; cited from earlier work
phosphodiesterase type 5 = settings: ref [37], cited from earlier work
CYP3A4/5/7 = settings: read-out: KM CYP3A4/5/7 sink; remainder of sildenafil metabolites; fixed; ref [27]; cited from earlier work

T2 sequence (P24462 whole entry): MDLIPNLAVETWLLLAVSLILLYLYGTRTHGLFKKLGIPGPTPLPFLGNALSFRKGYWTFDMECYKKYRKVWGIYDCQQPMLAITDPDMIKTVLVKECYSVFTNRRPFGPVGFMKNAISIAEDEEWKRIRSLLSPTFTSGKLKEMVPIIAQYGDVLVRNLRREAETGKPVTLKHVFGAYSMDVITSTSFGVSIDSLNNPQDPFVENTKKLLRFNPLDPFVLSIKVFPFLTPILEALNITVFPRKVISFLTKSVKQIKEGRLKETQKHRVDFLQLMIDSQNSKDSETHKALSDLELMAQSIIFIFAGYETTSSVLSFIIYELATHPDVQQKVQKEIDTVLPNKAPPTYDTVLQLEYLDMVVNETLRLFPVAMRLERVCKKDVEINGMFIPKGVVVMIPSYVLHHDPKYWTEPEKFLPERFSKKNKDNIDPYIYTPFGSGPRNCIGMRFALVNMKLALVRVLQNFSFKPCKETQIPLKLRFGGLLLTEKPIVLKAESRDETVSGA
T1 sequence (P08684 2-503 limits assumed): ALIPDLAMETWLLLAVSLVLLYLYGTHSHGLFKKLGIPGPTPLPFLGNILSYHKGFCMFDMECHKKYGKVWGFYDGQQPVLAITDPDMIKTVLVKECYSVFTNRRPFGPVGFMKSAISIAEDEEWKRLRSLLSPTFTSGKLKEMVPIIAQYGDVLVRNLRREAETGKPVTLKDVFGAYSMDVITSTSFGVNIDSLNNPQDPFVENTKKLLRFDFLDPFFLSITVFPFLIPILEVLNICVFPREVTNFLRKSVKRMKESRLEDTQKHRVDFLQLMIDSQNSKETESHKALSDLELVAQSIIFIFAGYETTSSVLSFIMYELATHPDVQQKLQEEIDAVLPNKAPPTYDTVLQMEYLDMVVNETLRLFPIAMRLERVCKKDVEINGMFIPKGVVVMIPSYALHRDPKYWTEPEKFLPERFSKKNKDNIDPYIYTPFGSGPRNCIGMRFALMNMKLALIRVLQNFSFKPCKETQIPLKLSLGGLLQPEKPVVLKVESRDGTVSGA
T3 sequence (P20815 whole entry): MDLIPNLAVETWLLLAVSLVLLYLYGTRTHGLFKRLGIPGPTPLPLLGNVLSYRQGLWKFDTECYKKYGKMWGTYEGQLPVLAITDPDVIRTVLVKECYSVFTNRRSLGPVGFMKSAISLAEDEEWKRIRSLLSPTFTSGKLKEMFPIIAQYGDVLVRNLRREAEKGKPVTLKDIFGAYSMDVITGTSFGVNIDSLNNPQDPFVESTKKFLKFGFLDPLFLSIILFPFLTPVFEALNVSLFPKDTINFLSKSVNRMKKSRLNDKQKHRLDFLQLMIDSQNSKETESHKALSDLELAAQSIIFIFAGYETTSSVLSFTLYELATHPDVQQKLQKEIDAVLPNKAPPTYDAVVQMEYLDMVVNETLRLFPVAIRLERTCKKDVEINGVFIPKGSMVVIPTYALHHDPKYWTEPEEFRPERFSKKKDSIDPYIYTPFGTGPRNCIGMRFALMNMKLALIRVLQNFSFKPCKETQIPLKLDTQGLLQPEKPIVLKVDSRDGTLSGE

- DMS AUC Ratio simulated/observed ([5]; 25 mg sildenafil single oral dose): 1.01
- DMS AUC Ratio simulated/observed ([5]; 50 mg sildenafil single oral dose): 0.94
- DMS AUC Ratio simulated/observed ([5]; 100 mg sildenafil single oral dose): 0.85
- DMS AUC Ratio simulated/observed ([5]; 200 mg sildenafil single oral dose): 0.79
- DMS AUC Ratio simulated/observed ([5]; sildenafil 25 mg/25-minute infusion i.v.): 1.87
SMILES: CCCc1nn(C)c2c(=O)[nH]c(-c3cc(S(=O)(=O)N4CCNCC4)ccc3OCC)nc12 [DMS, N-desmethylsildenafil]
- in vitro formation kinetic intrinsic clearance (CLint) for DMS (CYP3A4 [1]; CYP3A4, ref [18]): 0.733 μL/min/pmol CYP3A
- DMS AUC0-24 Fold Change observed [2]: 1.7
- fu, predominant plasma binding protein (plasma protein (AAG)): 0.04 (AAG)
- Water solubility [3]: 0.419 mg/mL
- pKa [3]: 7.16
- in vitro formation kinetic intrinsic clearance (CLint) for DMS (CYP3A7 [4]; CYP3A7): 0.079 μL/min/pmol CYP3A
- DMS AUC Observed ([6]; 25 mg sildenafil single oral dose, AUC0–∞, ref [47]): 147 ng·h/mL
- DMS AUC Observed ([6]; 50 mg sildenafil single oral dose, AUC0–∞, ref [47]): 328 ng·h/mL
- DMS AUC Observed ([6]; 100 mg sildenafil single oral dose, AUC0–∞, ref [47]): 776 ng·h/mL
- DMS AUC Observed ([6]; 200 mg sildenafil single oral dose, AUC0–∞, ref [47]): 1822 ng·h/mL
- DMS AUC Observed ([6]; sildenafil 25 mg/25-minute infusion i.v., AUC0–∞, ref [13]): 147 ng·h/mL
- in vitro formation kinetic intrinsic clearance (CLint) for DMS (CYP3A5 [7]; CYP3A5, ref [18]): 0.788 μL/min/pmol CYP3A

- Alpha (CYP3A4 [8]; mixed model, value (90% CI)): 16.6 (6.1–178)
- Inhibition type (CYP3A4 [8]; recombinant CYP3A4, testosterone probe): mixed competitive inhibitor
- KI uncompetitive (CYP3A4 [8]; value (90% CI)): 83.1 (67.4–102.9) μM
- Ki (CYP3A5 [9]; KI competitive, value (90% CI)): 70.8 µM
- Ki (CYP3A5 [9]; KI global, net value of mixed model, value (90% CI), triplicates): 182 µM
- Alpha (CYP3A5 [9]; mixed model, value (90% CI)): 2.6 (0.5–13.9)
- Inhibition type (CYP3A5 [9]; recombinant CYP3A5, testosterone probe): mixed competitive inhibitor
- KI uncompetitive (CYP3A5 [9]; value (90% CI)): 238.7 (183.2–318.9) μM
- Alpha (CYP3A7 [10]; mixed model, value (90% CI)): 13.5 (1.8–∞)
- Inhibition type (CYP3A7 [10]; recombinant CYP3A7, testosterone probe): mixed competitive inhibitor
- KI uncompetitive (CYP3A7 [10]; value (90% CI)): 389.0 (266.7–610.3) μM
SMILES: OC(Cn1cncn1)(Cn1cncn1)c1ccc(F)cc1F [Fluconazole, fluconazole]

SMILES: CCCc1nn(C)c2c(=O)[nH]c(-c3cc(S(=O)(=O)N4CCN(C)CC4)ccc3OCC)nc12 [Sildenafil, sildenafil]
- Vmax CYP3A4 DMS (CYP3A4 [1]; DMS formation, ref [27]): 1.00 pmol/min/pmol
- Km (CYP3A4 [1]; read-out: KM CYP3A4 DMS, DMS formation, ref [27]): 15 µM
- decrease in sildenafil clearance by fluconazole ([11]; 11 infants 2–121 days old, 3 with fluconazole, nasogastric tube, ref [20]): 47%
- decrease in sildenafil CL by fluconazole ([11]; 34 preterm infants, 4 with fluconazole, ref [21]): 59%
- fu, predominant plasma binding protein (plasma protein (AAG)): 0.04 (AAG)
- protein binding of sildenafil (plasma protein (AAG); infants, ref [20]): 93.9%
- sildenafil clearance (CL) ([12]; 7 days of age, ref [19]): 2.58 L/h
- sildenafil clearance (CL) ([12]; day 1, ref [19]): 0.84 L/h
- Sildenafil CL Observed ([12]; Preterm infants, ref [21]): 27.8 (33.3%)^b,e liters/hour
- Sildenafil Vss Observed ([12]; Preterm infants, ref [21]): 144 (N/A)^b,e liters
- Sildenafil CL Observed ([12]; Term neonates, ref [19]): 24.7 (54.7%)^b,f liters/hour
- Sildenafil Vss Observed ([12]; Term neonates, ref [19]): 456 (N/A)^b,f liters
- Vss in full-term neonates, not scaled ([12]; full-term neonates, ref [20]): 22.4 L
- Vmax CYP2C9 DMS (CYP2C9): 78 pmol/min/mg
- Km (CYP2C9; read-out: KM CYP2C9 DMS): 27 µM
- efficacy of the low dose [13]: ineffective
- pKa [3]: 5.97
- Km (CYP3A7 [4]; read-out: KM CYP3A7 DMS, DMS formation): 5.71 µM
- Sildenafil AUC Observed ([6]; 10 mg i.v. bolus, adults with pulmonary arterial hypertension, AUC0–τ (8 hours), ref [49]): 330 ng·h/mL
- Sildenafil AUC Observed ([6]; 25 mg single oral dose, healthy men, AUC0–∞, ref [47]): 361 ng·h/mL
- Sildenafil AUC Observed ([6]; 25 mg/25-minute infusion i.v., healthy adult men, AUC0–∞, ref [13]): 971 ng·h/mL
- Sildenafil AUC Observed ([6]; 50 mg single oral dose, healthy men, AUC0–∞, ref [47]): 738 ng·h/mL
- Sildenafil AUC Observed ([6]; 50 mg/50-minute infusion i.v., healthy men, AUC0–∞, ref [47]): 1291 ng·h/mL
- Sildenafil AUC Observed ([6]; 80 mg p.o. t.i.d. after 20 mg t.i.d. for 3 days, healthy men, AUC0–τ, ref [48]): 1720 ng·h/mL
- Sildenafil AUC Observed ([6]; 100 mg single oral dose, healthy men, AUC0–∞, ref [47]): 1685 ng·h/mL
- Sildenafil AUC Observed ([6]; 200 mg single oral dose, healthy men, AUC0–∞, ref [47]): 3755 ng·h/mL
- Sildenafil CL Observed ([6]; Healthy adults, PopPK, mean (inter-individual variability), ref [50]): 29.5 (31.2%)^d liters/hour
- Sildenafil Vss Observed ([6]; Healthy adults, PopPK, ref [50]): 107 (N/A)^d liters
- Sildenafil CL Observed ([6]; Patients with PAH, 10 mg i.v. bolus, ref [49]): 32.2 (N/A)^c liters/hour
- Sildenafil Vss Observed ([6]; Patients with PAH, reported as terminal phase volume (Vz), ref [49]): 137 (N/A)^c liters
- Km (CYP3A5 [7]; read-out: KM CYP3A5 DMS, DMS formation, ref [27]): 14.7 µM
- concentration of half-maximal effect, pulmonary vascular resistance [14]: 17 ng/mL
- concentration that produces the maximal effect, pulmonary vascular resistance [14]: around 100 ng/mL
- unbound inhibition of in vitro phosphodiesterase type 5 activity (phosphodiesterase type 5; at steady-state Cmax 47 ng/mL): 53%
- unbound inhibition of in vitro phosphodiesterase type 5 activity (phosphodiesterase type 5; at steady-state Cmax 140 ng/mL): 77%
- unbound inhibition of in vitro phosphodiesterase type 5 activity (phosphodiesterase type 5; at steady-state Cmax 373 ng/mL): 90%
- Km (CYP3A4/5/7): 15 µM

— PMC8138939 (Clinical pharmacology and therapeutics, 2020)
